This note sets out measurements from PMC6193035, “Novel small molecules affecting cell membrane as potential therapeutics for avian pathogenic Escherichia coli” (Scientific Reports, 2018).

Converted amounts (≈) assume the structure as drawn. Read-outs that look alike come from different tables or passages of the source. Marks after values point to notes of the source that are not given here.

Common to all, as to type: cell-based, Escherichia coli
Assay [1] relates to APEC O78. As to the kind of experiment: Loss of 260/280 nm absorbing materials assay. To be noted: 2X MBC, 1 h. How it is done:
(§1) Membrane permeability assays (crystal violet (CV) uptake and loss of 260/280 nm absorbing materials) were conducted as described previously. […] CV uptake was measured using the formula: (OD DMSO − OD SM/OD DMSO × 100). Two independent experiments in duplicates were conducted.

Assay [2] has as its system APEC O78. Briefly: Crystal violet (CV) uptake assay. To be noted: 2X MBC, 30 mins; P < 0.05, Student's t-test. How it is done: as §1
In assay [3] the test system is APEC O1. As to the kind of experiment: Antimicrobial susceptibility, CAMHB micro-dilution (CLSI). The note with it: (R) = resistant. The source says: (§2) Initially, antimicrobial susceptibility profile was established for all the tested APEC serotypes using cation-adjusted Muller-Hinton broth (CAMHB) micro-dilution method according to clinical and laboratory standards institute (CLSI) guidelines.
A general note: Broth dilution looks for growth in wells or tubes with falling amounts of substance.

Assay [4] has as its system APEC O2-211. Described as above. The note with it: APEC O2-211, CAMHB, (R) = resistant.
Text: as §2

In assay [5] the test system is APEC O2. The description is as above. The note with it: (R) = resistant.
Text: as §2

Assay [6] relates to APEC O35. Described as above. The note with it: (R) = resistant.
Text: as §2

Assay [7] has as its system APEC O18. The description is as above. To be noted: (R) = resistant.
Text: as §2

For assay [8], the system named is APEC O115. Described as above. The note with it: (R) = resistant.
Text: as §2

Assay [9] concerns APEC O15. Described as above. To be noted: (R) = resistant.
Text: as §2

Assay [10] has as its system APEC O78. The description is as above. To be noted: (R) = resistant.
Text: as §2

Assay [11] deals with APEC O78-53. Described as above. The note with it: APEC O78-53, CAMHB, (R) = resistant.
Text: as §2

The test system of assay [12] is APEC O109. The description is as above. The note with it: (R) = resistant.
Text: as §2

For assay [13], the system named is APEC O8. The description is as above. The note with it: (R) = resistant.
Text: as §2

Assay [14] has as its system APEC O1-63. The assay is described as above. To be noted: APEC O1-63, CAMHB, (R) = resistant.
Text: as §2

Assay [15] concerns E. coli ATCC 25922. As to the kind of experiment: Antimicrobial susceptibility, quality control strain (CLSI). To be noted: E. coli ATCC 25922 quality control strain, CAMHB.
Text: as §2

Assay [16] deals with APEC O78. As to the kind of experiment: Primary screening, growth inhibition of APEC O78. The note with it: separate experiment, DMSO 1% to 32%, M63 media, 12 h. How it is done: To identify the APEC growth inhibitors, SM library was screened against APEC O78 which is one of the most frequently isolated APEC serotypes from avian colibacillosis cases. One microlitre SMs (final concentration of 100 µM) were added using a slotted pin tool (V and P Scientific, San Diego, CA, USA) to the wells of the 96-well plate containing 100 µL of overnight grown 0.05 OD600 (7 × 10^7 CFU/mL) adjusted APEC culture. Controls (four replicates/plate) containing 1 µL of 100% DMSO (final concentration of 1%), 1 µL chloramphenicol (CHL, #C0378 Sigma-Aldrich) (20 µg/mL), 1 µL kanamycin (KAN, #60615 Sigma-Aldrich) (50 µg/mL), and 100 µL of M63 media were included. To determine the effect of DMSO on APEC growth, antimicrobial activity of DMSO was determined at different concentrations (1% to 32%) in a separate experiment. Plate was then incubated at 37 °C for 12 h in Sunrise - Absorbance microplate reader (Tecan Group Ltd. San Jose, CA) with kinetic OD600 measurement every 30 mins. The quality of screening was assessed by calculating the Z′-score as described previously. The growth inhibition of APEC was calculated by using the formula as previously described[13],[14]. The SMs inhibiting at least 80% of the APEC growth were selected as primary hits. […]

Where [17] appears, read: Escherichia coli, read-out: MIC.
[18] abbreviates: Escherichia coli, ATCC25922, read-out: MIC.

As for `O=C(O)CN(CCN(CC(=O)O)CC(=O)O)CC(=O)O` [EDTA, ethylenediaminetetraacteic acid, reference compound], the “260 nm absorbing materials in supernatant compared with DMSO” value in assay [1] was “significantly (P < 0.05, Student’s t-test) increased”. In addition, the “Absorbance 280 nm of treated supernatant” value in assay [1] (DMSO 2.58, superscript a P < 0.05 vs DMSO) came to 2.60. For the same molecule, the “Absorbance 260 nm of treated supernatant” value in [1] (DMSO 3.77, superscript a P < 0.05 vs DMSO) was 4.00^a. In addition, the “uptake of crystal violet compared with DMSO” value in [2] is listed as “increased the uptake of crystal violet”.

Regarding `CN(C)[C@@H]1C(O)=C(C(N)=O)C(=O)[C@@]2(O)C(O)=C3C(=O)c4c(O)cccc4[C@@](C)(O)[C@H]3C[C@@H]12` [Tetracycline, tetracycline], the minimal inhibitory concentration (MIC) is more than 64 µg/mL in [3] (setting [17]); more than 64 µg/mL in [4] (setting [17]); more than 64 µg/mL in assay [5] (setting [17]); 1 µg/mL (≈ 2.25 µM) in assay [6] (setting [17]); 2 µg/mL (≈ 4.5 µM) in [7] (setting [17]); more than 64 µg/mL in assay [8] (setting [17]). Further, the minimum inhibitory concentration (MIC) in assay [9] (setting [17]) is more than 64 µg/mL; in assay [10] (setting [17]), 32 µg/mL (≈ 72 µM); in [11] (setting [17]), more than 64 µg/mL; in [12] (setting [17]), 1 µg/mL (≈ 2.25 µM); in assay [13] (setting [17]) it was more than 64 µg/mL; in [14] (setting [17]) it was 16 µg/mL (≈ 36 µM). The MIC in assay [15] (setting [18]) was 0.5 µg/mL (≈ 1.13 µM).

On to `C[S+](C)[O-]` [DMSO, dimethyl sulfoxide], for which, in assay [16], the “DMSO concentration inhibitory to APEC” value is listed as not below 8%.

For the molecule `CC1(C)S[C@@H]2[C@H](NC(=O)[C@H](N)c3ccccc3)C(=O)N2[C@H]1C(=O)O` [Ampicillin, ampicillin], the minimal inhibitory concentration (MIC) in assay [3] (setting [17]) is more than 64 µg/mL; in assay [4] (setting [17]), 4 µg/mL (≈ 11.4 µM); in assay [5] (setting [17]), more than 64 µg/mL; in assay [6] (setting [17]), 2 µg/mL (≈ 5.72 µM); in assay [7] (setting [17]), 4 µg/mL (≈ 11.4 µM); in assay [8] (setting [17]), more than 64 µg/mL. Further, the minimal inhibitory concentration (MIC) is 2 µg/mL (≈ 5.72 µM) in [9] (setting [17]); more than 64 µg/mL in assay [10] (setting [17]); 4 µg/mL (≈ 11.4 µM) in assay [11] (setting [17]); more than 64 µg/mL in assay [12] (setting [17]); 4 µg/mL (≈ 11.4 µM) in assay [13] (setting [17]); 4 µg/mL (≈ 11.4 µM) in [14] (setting [17]). For the same molecule, in assay [15] (setting [18]), the MIC was found to be 8 µg/mL (≈ 22.9 µM).

As to colistin, the MIC in [3] is 0.5 µg/mL; in assay [4], 4 µg/mL; in assay [5], 0.5 µg/mL; in assay [6], 1 µg/mL; in [7] it was 1 µg/mL; in assay [8], 1 µg/mL. Also, the MIC in assay [9] was 1 µg/mL; in assay [10], 0.25 µg/mL; in assay [11], 0.5 µg/mL; in assay [12], 0.5 µg/mL; in assay [13] it was 1 µg/mL; in assay [14], 4 µg/mL. In assay [15], this molecule came in with a minimum inhibitory concentration (MIC) of 1 µg/mL.

A word on the MIC: it is the lowest concentration found to suppress growth.
